Results from patent EP3638283B1, “ANTAGONISTS OF CAV2.3 R-TYPE CALCIUM CHANNELS FOR THE TREATMENT OF NEURODEGENERATIVE DISEASES” (Lario Therapeutics Ltd., priority 2017, dated 2018).
Read-outs that look alike come from different tables or passages of the source.

Tests used:
SN DA neurons [1] = experiment: Dopamine auto-inhibition of SN DA neuron pacemaker activity, patch-clamp recordings in mouse brain slices; type: cell-based; conditions: isradipine 300nM; dopamine 100 µM
[2] = Parkinson Study, 2013; cited from earlier work
SN DA neurons [3] = conditions: neurotoxin PD-mouse models; pharmacological L-type calcium channel inhibition (Ilijic et al., 2011; Ortner et al., 2017); cited from earlier work
SN DA neurons [4] = conditions: cited from earlier work
SN DA neurons [5] = type: cell-based, mouse
[6] = molecular target: T1, voltage-sensitive A-type Kv4.3 K+ channels (Homo sapiens, UniProt Q9UK17); conditions: Kimm & Bean 2014; cited from earlier work
T1 sequence (Q9UK17 1-655): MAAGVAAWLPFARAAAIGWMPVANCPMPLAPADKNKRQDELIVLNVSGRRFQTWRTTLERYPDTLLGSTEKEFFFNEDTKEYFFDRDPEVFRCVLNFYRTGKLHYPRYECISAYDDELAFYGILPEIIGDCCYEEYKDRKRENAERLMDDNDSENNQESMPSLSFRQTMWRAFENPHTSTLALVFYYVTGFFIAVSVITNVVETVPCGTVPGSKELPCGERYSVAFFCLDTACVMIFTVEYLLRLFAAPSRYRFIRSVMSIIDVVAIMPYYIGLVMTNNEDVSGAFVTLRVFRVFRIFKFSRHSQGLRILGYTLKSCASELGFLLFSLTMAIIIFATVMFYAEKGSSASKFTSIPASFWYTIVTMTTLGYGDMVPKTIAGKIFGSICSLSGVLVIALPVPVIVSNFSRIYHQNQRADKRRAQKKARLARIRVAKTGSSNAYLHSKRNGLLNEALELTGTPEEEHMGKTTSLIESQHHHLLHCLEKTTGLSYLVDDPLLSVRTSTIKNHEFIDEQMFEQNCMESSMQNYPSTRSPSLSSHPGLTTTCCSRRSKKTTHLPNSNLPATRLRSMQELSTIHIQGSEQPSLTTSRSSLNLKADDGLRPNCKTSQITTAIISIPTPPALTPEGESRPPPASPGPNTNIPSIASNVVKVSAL

SN DA neurons [7] = type: cell-based, mouse; remark: listed apart in the source

**Q.** What does the source list for `COC(=O)C1=C(C)NC(C)=C(C(=O)OC(C)C)C1c1cccc2nonc12` (stereo not drawn) [isradipine]?
**A.** sensitized dopamine-autoinhibition of SN DA neurons (SN DA neurons [1]): did not substantially alter; maximal tolerable dosis [2]: 10 mg/day; SN DA neuroprotection (SN DA neurons [3]): inconclusive findings; somatic activity-dependent Ca^2+ oscillations (SN DA neurons [4]; cell body of WT SN DA neurons, in the presence of isradipine (Ortner et al., 2017)): not significantly affected; sensitivity of activity-dependent Ca^2+ oscillations in SN DA neurons to the blocker (SN DA neurons [4]; distal dendrites versus cell-bodies (Guzman et al., 2010; Ortner et al.)): only in distal dendrites but not in the cell-bodies

**Q.** Which “D2-AR responses of adult SN DA neurons (dopamine-autoinhibition)” value (SN DA neurons [5]) does the source give for SNX-482 here?
**A.** Its value is “desensitized D2-AR responses”.

**Q.** What about the “affinity of inhibition of A-type Kv4.3 K+ channels” value [6] of the same molecule?
**A.** The value was “high nanomolar affinity”.

**Q.** And the “action potential-induced somatic Ca^2+ transients” value (SN DA neurons [7])?
**A.** Its value is “significantly reduced”.

**Q.** With ω-conotoxin MVIIC [[…]-conotoxin MVIIC] as the molecule, how does the “sensitized dopamine-autoinhibition of SN DA neurons” value (SN DA neurons [5]) read?
**A.** The value was “did not substantially alter”.
